Broadly, the IC50 is the concentration that inhibits the measured activity by half.

Molecules are shown by their SMILES.

Holding throughout (assay type): cell-based
In one test the test system is coxsackie B4 virus. Nature of the test: In vitro CPE assay in mammalian cell culture, B4. The note with it: Enterovirus B, viral cytopathic effect in mammalian cell culture, read-out: B4 inhibition capacity (IC50).
For another test, the system named is Enterovirus 71. Put plainly: In vitro CPE assay in mammalian cell culture, EV71. The following applies: Enterovirus A, viral cytopathic effect in mammalian cell culture, read-out: EV71 inhibition capacity (IC50).
The next test has as its system coxsackie B2 virus. Nature of the test: In vitro CPE assay in mammalian cell culture, B2. The note with it: viral cytopathic effect in mammalian cell culture, read-out: B2 inhibition capacity (IC50).
The test system of another test is Enterovirus 68. Put plainly: In vitro CPE assay in mammalian cell culture, EV68. The note with it: Enterovirus D, viral cytopathic effect in mammalian cell culture, read-out: EV68 inhibition capacity (IC50).
The next test has as its system coxsackie B1 virus. Put plainly: In vitro CPE assay in mammalian cell culture, B1. The following applies: viral cytopathic effect in mammalian cell culture, read-out: B1 inhibition capacity (IC50). In general terms: Protection from cytopathic effect is a common read-out in antiviral testing.
A further test relates to Enterovirus 6. Put plainly: In vitro CPE assay in mammalian cell culture, EV6. The following applies: viral cytopathic effect in mammalian cell culture, read-out: EV6 inhibition capacity (IC50).
Another test has as its system polio virus Sabin 1. Put plainly: organism not typed. The following applies: read-out: Polio 1 inhibition capacity (IC50).
The next test concerns Enterovirus 30. Nature of the test: In vitro CPE assay in mammalian cell culture, EV30. The note with it: viral cytopathic effect in mammalian cell culture, read-out: EV30 inhibition capacity (IC50).
The next test has as its system coxsackie B3 virus. Nature of the test: In vitro CPE assay in mammalian cell culture, B3. The following applies: Enterovirus B, viral cytopathic effect in mammalian cell culture, read-out: B3 inhibition capacity (IC50).
For a further test, the system named is coxsackie B5 virus. Nature of the test: In vitro CPE assay in mammalian cell culture, B5. The following applies: viral cytopathic effect in mammalian cell culture, read-out: B5 inhibition capacity (IC50).

For `Cc1cc(NCc2ccc(Cl)cc2)c2nc(C)c(-c3ccc4c(c3)c(C)nn4C)n2n1` [Example 3, N-(4-chlorobenzyl)-3-(1,3-dimethyl-1H-indazol-5-yl)-2,6-dimethylimidazo[1,2-b]pyridazin-8-amine], the IC50 in the test on coxsackie B4 virus is less than 1 µM; in the test on Enterovirus 71 it was less than 1 µM; in the test with coxsackie B2 virus, less than 1 µM; in the test with Enterovirus 68, less than 1 µM; in the test on coxsackie B1 virus it was less than 0.1 µM; with Enterovirus 6, less than 1 µM. In addition, the IC50 in the test on polio virus Sabin 1, with Enterovirus 30 and with coxsackie B3 virus was less than 1 µM throughout.
Take `COc1ccc(CNc2cc(C)nn3c(-c4ccc5c(c4)c(C)nn5C)c(C)nc23)cn1` [Example 4, 3-(1,3-dimethyl-1H-indazol-5-yl)-N-((6-methoxypyridin-3-yl)methyl)-2,6-dimethylimidazo[1,2-b]pyridazin-8-amine]: the IC50 was less than 0.1 µM with coxsackie B4 virus; less than 0.1 µM with Enterovirus 71; less than 0.1 µM in the test on coxsackie B2 virus; less than 1 µM in the test on Enterovirus 68; less than 0.1 µM in the test on coxsackie B1 virus; less than 1 µM with Enterovirus 6. The results for the IC50 with polio virus Sabin 1, in the test with Enterovirus 30 and with coxsackie B3 virus were less than 1 µM, less than 0.1 µM and less than 0.1 µM, respectively.
In the case of `Cc1cc(NCc2cccs2)c2nc(C)c(-c3ccc4c(c3)c(C)nn4C)n2n1` [Example 5, 3-(1,3-dimethyl-1H-indazol-5-yl)-2,6-dimethyl-N-(thiophen-2-ylmethyl)imidazo[1,2-b]pyridazin-8-amine], the IC50 in the test with coxsackie B4 virus was less than 0.1 µM; with Enterovirus 71, less than 0.1 µM; in the test on coxsackie B2 virus it was less than 0.1 µM; with Enterovirus 68, less than 1 µM; in the test with coxsackie B1 virus, less than 0.001 µM; in the test with Enterovirus 6 it was less than 0.1 µM. Further, the IC50 in the test on polio virus Sabin 1, with Enterovirus 30 and in the test on coxsackie B3 virus was less than 0.1 µM each time.
`COc1ccc(CNc2cc(C)nn3c(-c4ccc5c(c4)c(C)nn5C)c(C)nc23)cc1` [Example 6, 3-(1,3-dimethyl-1H-indazol-5-yl)-N-(4-methoxybenzyl)-2,6-dimethylimidazo[1,2-b]pyridazin-8-amine]: the IC50 in the test with coxsackie B4 virus, in the test on coxsackie B2 virus, with Enterovirus 68, in the test with coxsackie B1 virus, in the test with coxsackie B5 virus and in the test on polio virus Sabin 1 was less than 1 µM each time. In addition, the IC50 in the test on Enterovirus 30 and in the test on coxsackie B3 virus was less than 1 µM each time.
In the case of `Cc1ccc(CNc2cc(C)nc3c(-c4ccc5c(c4)c(C)nn5C)c(C)nn23)cn1` [Example 9, 3-(1,3-dimethyl-1H-indazol-5-yl)-2,5-dimethyl-N-((6-methylpyridin-3-yl)methyl)pyrazolo[1,5-a]pyrimidin-7-amine], the IC50 in the test on coxsackie B4 virus is less than 0.1 µM; with Enterovirus 71, less than 0.1 µM; with coxsackie B2 virus, less than 0.01 µM; with Enterovirus 68, less than 0.1 µM; in the test with coxsackie B1 virus, less than 0.01 µM; with Enterovirus 6, less than 1 µM. For the same molecule, the IC50 in the test on coxsackie B5 virus was less than 0.1 µM; in the test on polio virus Sabin 1, less than 0.1 µM; in the test with Enterovirus 30, less than 0.1 µM; with coxsackie B3 virus, less than 0.01 µM.
As for `COc1ccc(CNc2cc(C)nc3c(-c4ccc5c(c4)c(C)nn5C)c(C)nn23)cc1` [Example 10, 3-(1,3-dimethyl-1H-indazol-5-yl)-N-(4-methoxybenzyl)-2,5-dimethylpyrazolo[1,5-a]pyrimidin-7-amine], the IC50 in the test with coxsackie B4 virus was less than 0.1 µM; with Enterovirus 71, less than 1 µM; in the test on coxsackie B2 virus, less than 1 µM; in the test with Enterovirus 68, less than 1 µM; with coxsackie B1 virus, less than 1 µM; in the test on Enterovirus 6, less than 1 µM. The concentration for half-maximal inhibition (IC50) is less than 0.1 µM in the test on coxsackie B5 virus, less than 1 µM in the test with polio virus Sabin 1, less than 0.1 µM in the test on Enterovirus 30 and less than 0.1 µM in the test on coxsackie B3 virus.
As to `Cc1cc(NCc2ccc(Cl)cc2)n2nc(C)c(-c3ccc4c(c3)c(C)nn4C)c2n1` [Example 11, N-(4-chlorobenzyl)-3-(1,3-dimethyl-1H-indazol-5-yl)-2,5-dimethylpyrazolo[1,5-a]pyrimidin-7-amine], the IC50 with coxsackie B4 virus was less than 0.1 µM; in the test with Enterovirus 71 it was less than 1 µM; with coxsackie B2 virus it was less than 1 µM; in the test on Enterovirus 68, less than 1 µM; with coxsackie B1 virus, less than 1 µM; in the test with Enterovirus 6, less than 1 µM. The IC50 in the test with coxsackie B5 virus, in the test with polio virus Sabin 1, in the test on Enterovirus 30 and in the test with coxsackie B3 virus was less than 1 µM throughout.
`COc1ccc(CNc2cc(C)nc3c(-c4ccc5c(c4)c(C)nn5C)c(C)nn23)cn1` [Example 14, 3-(1,3-dimethyl-1H-indazol-5-yl)-N-((6-methoxypyridin-3-yl)methyl)-2,5-dimethylpyrazolo[1,5-a]pyrimidin-7-amine]: the IC50 in the test on coxsackie B4 virus was less than 0.01 µM; in the test with Enterovirus 71 it was less than 1 µM; in the test on coxsackie B2 virus, less than 1 µM; in the test with Enterovirus 68, less than 1 µM; in the test with coxsackie B1 virus, less than 1 µM; in the test with Enterovirus 6, less than 1 µM. Also, the IC50 is less than 1 µM in the test on coxsackie B5 virus, less than 0.1 µM in the test with polio virus Sabin 1, less than 0.1 µM in the test on Enterovirus 30 and less than 0.01 µM with coxsackie B3 virus.
Consider `Cc1cc(NCc2ccc(C(F)(F)F)nc2)n2nc(C)c(-c3ccc4c(c3)c(C)nn4C)c2n1` [Example 17, 3-(1,3-dimethyl-1H-indazol-5-yl)-2,5-dimethyl-N-((6-trifluoromethylpyridin-3-yl)methyl)pyrazolo[1,5-a]pyrimidin-7-amine], for which the IC50 was less than 1 µM with coxsackie B4 virus; less than 0.1 µM with Enterovirus 71; less than 1 µM in the test with coxsackie B2 virus; less than 1 µM in the test on Enterovirus 6; less than 1 µM with coxsackie B5 virus; less than 1 µM in the test with polio virus Sabin 1. Also, the IC50 in the test with Enterovirus 30 and in the test on coxsackie B3 virus was less than 1 µM each time.
Consider `Cc1cc(NCc2ccccc2)n2nc(C)c(-c3ccc4c(c3)c(C)nn4C)c2n1` [Example 18, N-(benzyl)-3-(1,3-dimethyl-1H-indazol-5-yl)-2,5-dimethylpyrazolo[1,5-a]pyrimidin-7-amine], for which the IC50 is less than 1 µM in the test on coxsackie B4 virus; less than 0.01 µM in the test on Enterovirus 71; less than 0.1 µM with coxsackie B2 virus; less than 1 µM with Enterovirus 6; less than 1 µM in the test on coxsackie B5 virus; less than 0.1 µM in the test on polio virus Sabin 1. For the same molecule, the half-maximal inhibitory concentration (IC50) with coxsackie B3 virus was less than 0.1 µM.
On to `Cc1cc(NCc2ccc(F)cc2)n2nc(C)c(-c3ccc4c(c3)c(C)nn4C)c2n1` [Example 19, N-(4-fluorobenzyl)-3-(1,3-dimethyl-1H-indazol-5-yl)-2,5-dimethylpyrazolo[1,5-a]pyrimidin-7-amine], for which the IC50 is less than 1 µM in the test on coxsackie B4 virus; less than 0.1 µM in the test with Enterovirus 71; less than 1 µM in the test on coxsackie B2 virus; less than 1 µM in the test on Enterovirus 6; less than 1 µM in the test on coxsackie B5 virus; less than 1 µM in the test on polio virus Sabin 1. For the same molecule, in the test on coxsackie B3 virus, the IC50 was less than 0.1 µM.
Consider `COc1ccc(CNc2nc(C)nc3c(-c4ccc5c(c4)c(C)nn5C)c(C)nn23)cc1` [Example 21, 8-(1,3-dimethyl-1H-indazol-5-yl)-N-(4-methoxybenzyl)-2,7-dimethylpyrazolo[1,5-a][1,3,5]triazin-4-amine], for which the IC50 in the test on coxsackie B4 virus was less than 1 µM; with Enterovirus 71, less than 0.1 µM; in the test on coxsackie B2 virus it was less than 1 µM; with Enterovirus 68, less than 1 µM; in the test with coxsackie B1 virus, less than 1 µM; with coxsackie B5 virus it was less than 1 µM. Besides, the IC50 with polio virus Sabin 1 is less than 0.01 µM; in the test with Enterovirus 30 it was less than 1 µM; with coxsackie B3 virus, less than 0.1 µM.
On to `Cc1nc(NCc2ccc(NS(C)(=O)=O)cc2)n2nc(C)c(-c3ccc4c(c3)c(C)nn4C)c2n1` [Example 26, N-(4-(((8-(1,3-dimethyl-1H-indazol-5-yl)-2,7-dimethylpyrazolo[1,5-a][1,3,5]triazin-4-yl)amino)meth-yl)phenyl)methane-sulfonamide], for which the IC50 was less than 0.1 µM in the test on coxsackie B4 virus; less than 0.1 µM with Enterovirus 71; less than 0.1 µM with coxsackie B2 virus; less than 0.1 µM with Enterovirus 68; less than 0.01 µM with coxsackie B1 virus; less than 1 µM in the test with Enterovirus 6. For the same molecule, the half-inhibitory concentration (IC50) in the test with polio virus Sabin 1 is less than 1 µM; in the test with Enterovirus 30, less than 0.1 µM; in the test on coxsackie B3 virus it was less than 0.1 µM.
For the molecule `Cc1nc(NCc2cccs2)n2nc(C)c(-c3ccc4c(c3)c(C)nn4C)c2n1` [Example 27, 8-(1,3-dimethyl-1H-indazol-5-yl)-2,7-dimethyl-N-(thiophen-2-ylmethyl)pyrazolo[1,5-a][1,3,5]triazin-4-amine], the IC50 with coxsackie B4 virus is less than 0.001 µM; with Enterovirus 71 it was less than 0.1 µM; with coxsackie B2 virus it was less than 0.001 µM; in the test with Enterovirus 68, less than 0.1 µM; in the test on coxsackie B1 virus it was less than 0.001 µM; in the test on Enterovirus 6, less than 0.1 µM. Moreover, the IC50 with polio virus Sabin 1 was less than 0.1 µM; in the test on Enterovirus 30, less than 0.1 µM; in the test on coxsackie B3 virus, less than 0.01 µM.
On to `COc1ccc(CNc2nc(C)nc3c(-c4ccc5c(c4)c(C)nn5C)c(C)nn23)cn1` [Example 28, 8-(1,3-dimethyl-1H-indazol-5-yl)-N-((6-methoxypyridin-3-yl)methyl)-2,7-dimethylpyrazolo[1,5-a][1,3,5]triazin-4-amine], for which the IC50 in the test with coxsackie B4 virus is less than 0.1 µM; in the test on Enterovirus 71, less than 0.1 µM; in the test with coxsackie B2 virus it was less than 0.1 µM; in the test with Enterovirus 68, less than 1 µM; in the test on coxsackie B1 virus, less than 0.01 µM; in the test with Enterovirus 6 it was less than 1 µM. In addition, the IC50 with polio virus Sabin 1 was less than 1 µM; in the test on Enterovirus 30 it was less than 0.1 µM; with coxsackie B3 virus it was less than 0.1 µM.

The values above are taken from patent publication US11001587B2, “Substituted indazoles as phosphatidylinositol kinase inhibitors” (CUROVIR AB, priority 2017, dated 2021).
